How the values were obtained:
[1] = Multiple oral dose pharmacokinetics in patients with SCI (Example 3); conditions: both sexes, human, in vivo
Protocol: This example details the plasma concentration of different dosage tablets of a aminopyridine in compositions of the present invention administered to patients with spinal cord injury. Pharmacokinetic results are presented for the subset of 11 patients who completed all dose levels. […] The time of the peak and the plasma elimination half-lives were independent of dose. […] The […] of fampridine ranged from 5.7 to 6.9 hours. There were no apparent differences between males and females.

[2] = Single dose, dose proportionality pharmacokinetics and safety in patients with multiple sclerosis (Example 4); assay type: in vivo, human
Protocol: This example details the pharmacokinetic properties of Fampridine-SR in tablets of the present invention administered to patients with multiple sclerosis. Plasma samples were analyzed for fampridine using a validated LC/MS/MS assay with a sensitivity of 2 ng/mL. Noncompartmental pharmacokinetic parameter values were calculated using standard methodology.
This was an open-label, multi-center, dose proportionality study of orally administered fampridine in patients with multiple sclerosis. Single doses of fampridine were to be given in escalating doses (5 mg, 10 mg, 15 mg, and 20 mg) with at least a four-day interval between administration of each dose of drug. Safety evaluations were to be performed during the 24 hour period following administration of fampridine and blood samples were to be taken at the following times to determine pharmacokinetic parameters: hour 0 (pre-dose), hours 1-8, and hours 10, 12, 14, 18, and 24.
Twenty-three subjects received all 4 treatments, and one subject received only 3 treatments; data from all treatments were analyzed. Dose-dependent parameters (e.g., peak plasma concentration and areas-under-the curve) were normalized to a 10 mg dose for among-dose comparisons.

[3] = Steady state pharmacokinetics and safety in patients with MS (Example 5); assay type: in vivo, human
Protocol: This example describes the results of an open-label study to assess the steady state pharmacokinetics of orally administered fampridine (4-aminopyridine) compositions of the present invention in subjects with Multiple Sclerosis. […] Blood samples for pharmacokinetic analysis were collected on Days 1, 7/8, and 14/15 at the following intervals: immediately prior to drug administration (baseline), hourly for the first 8 hours, and 10, 12, and 24 hours post-dose. Additional blood samples were collected 14, 18, and 20 hours post-dose on Day 14, and 30 and 36 hours post-dose on Day 15.

[4] = Single escalating dose pharmacokinetics and tolerability in patients with chronic incomplete SCI (Example 6)
Protocol: Each patient was to receive each dose in an ascending fashion. Each dose was to be followed by a 7-day washout period. […] Patients were to continue their fast for 4 hours after dosing and then a standard meal was to be served. Blood samples for pharmacokinetic analysis were to be obtained at Hour 0 (immediately preceding study drug administration) and 1, 2, 3, 4, 5, 6, 8, 10, 12, 16, 20, and 24 hours after each dose. A baseline urine sample was to be collected prior to dosing and urine was to be collected for 24 hours after administration of the study drug at the following intervals: 0.1 to 4 hours; 4.1 to 8 hours; 8.1 to 12 hours; and 12.1 to 24 hours.

[5] = all doses 5-20 mg, mean and 95% confidence interval, patients with MS
[6] = 20 mg twice daily for two weeks, patients with MS
[7] = single doses 10-25 mg, patients with chronic incomplete SCI

Nc1ccncc1 [fampridine, 4-aminopyridine]
Tmax [1]: 2.2 to 3 h | half-life [1]: 5.7 to 6.9 h | Cmax ([1]; po, 60 mg): 152 ng/mL | terminal half-life [2, 5]: 5.47 (5.05, 5.89) h | terminal rate constant [2, 5]: 0.14 (0.13, 0.15) h^−1 | area-under-the-concentration-time curve (normalized to a 10 mg dose) ([2]; human, in vivo): 254 (238, 270) ng-h/ml | clearance ([2]; human, in vivo): 637 mL/min | differences between pharmacokinetic parameters (AUC, Cmax, t1/2) normalized to the 10.0 mg dose ([2]; human, in vivo): no significant differences | extrapolated area-under-the-concentration-time curve (normalized to a 10 mg dose) ([2]; human, in vivo): 284 (266, 302) ng-h/ml | observed peak plasma fampridine concentration (normalized to a 10 mg dose) ([2]; human, in vivo): 24.12 (23.8, 26.6) ng/ml | tolerability ([2]; single doses 5-20 mg, patients with MS): well tolerated | changes in corrected QT intervals or QRS amplitudes [3, 6]: no apparent clinically significant changes | changes in mean clinical laboratory values, vital signs, or physical examination findings from baseline to last visit [3, 6]: no clinically significant changes | most common treatment-related adverse event [3, 6]: Dizziness | other treatment-related adverse events [3, 6]: nausea, ataxia, insomnia, and tremor | tolerability ([3]; 20 mg/dose twice daily for two weeks, subjects with multiple sclerosis): well tolerated | Cmax ([4]; 25 mg single dose, fasted, patients with chronic incomplete SCI): 67.4 ng/mL | time of peak concentration (mean tmax) post-dose, over dose levels ([4]; human, in vivo): 3 to 4 h | Cmax ([4]; human, in vivo, 10 mg): 27.7 ng/mL | AUC0-24h as percentage of AUC0-∞ [4, 7]: at least 92% | mean plasma half-life (t1/2), independent of dose [4, 7]: approximately 6 hours

From patent publication US11786514B2, “Sustained release aminopyridine composition” (priority 2003, dated 2023)
